Assay results reported in ChEMBL document CHEMBL5346863, “Discovery of substituted benzyloxy-benzylamine inhibitors of acetyltransferase Eis and their anti-mycobacterial activity” (Eur J Med Chem, 2022).
Converted amounts (≈) assume the structure as drawn. The source made the active and inactive calls. The rule behind the calls is not given here.

What was measured:
[1] = target: T1, N-acetyltransferase Eis (Mycobacterium tuberculosis (strain ATCC 25618 / H37Rv), UniProt P9WFK7); test: Inhibition of wild-type Mycobacterium tuberculosis Eis expressed in Escherichia coli BL21(DE3) cells incubated for 5 mins by Ellman's method
T1 sequence (P9WFK7 whole entry): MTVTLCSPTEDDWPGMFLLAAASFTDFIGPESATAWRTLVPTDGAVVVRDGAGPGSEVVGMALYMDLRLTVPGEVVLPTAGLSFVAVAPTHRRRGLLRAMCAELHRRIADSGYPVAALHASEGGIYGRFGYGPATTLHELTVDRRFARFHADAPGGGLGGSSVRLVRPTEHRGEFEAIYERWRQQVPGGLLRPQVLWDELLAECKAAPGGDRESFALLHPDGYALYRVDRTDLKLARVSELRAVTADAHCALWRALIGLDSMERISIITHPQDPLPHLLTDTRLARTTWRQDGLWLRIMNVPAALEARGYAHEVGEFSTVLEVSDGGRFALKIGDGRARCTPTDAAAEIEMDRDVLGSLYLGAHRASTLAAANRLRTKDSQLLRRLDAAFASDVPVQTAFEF

[2] = test system: Mycobacterium tuberculosis; test: Antibacterial activity against Mycobacterium tuberculosis H37Ra assessed as bacterial growth inhibition incubated 2 to 3 weeks by resazurin dye based assay; type: functional; settings: time 2-3 weeks
[3] = test system: Mycobacterium tuberculosis; test: Antibacterial activity against Mycobacterium tuberculosis mc2 6230 assessed as bacterial growth inhibition incubated 2 to 3 weeks by resazurin dye based assay; type: functional; settings: time 2-3 weeks
[4] = test system: Mycolicibacterium smegmatis; test: Antibacterial activity against Mycobacterium smegmatis mc2 122 assessed as bacterial growth inhibition incubated for 2 to 3 weeks by resazurin dye based assay; type: functional; settings: time 2-3 weeks
[5] = test system: Mycobacteroides abscessus; test: Antibacterial activity against Mycobacterium abscessus ATCC 19977 assessed as bacterial growth inhibition incubated for 2 to 3 weeks by resazurin dye based assay; type: functional; settings: time 2-3 weeks
[6] = test system: Mycobacterium avium; test: Antibacterial activity against Mycobacterium avium ATCC 25291 assessed as bacterial growth inhibition incubated for 2 to 3 weeks by resazurin dye based assay; type: functional; settings: time 2-3 weeks
[7] = test system: Mycobacterium intracellulare; test: Antibacterial activity against Mycobacterium intracellulare ATCC 13950 assessed as bacterial growth inhibition incubated for 2 to 3 weeks by resazurin dye based assay; type: functional; settings: time 2-3 weeks
[8] = test system: Mycobacterium parascrofulaceum; test: Antibacterial activity against Mycobacterium parascrofulaceum ATCC BAA-614 assessed as bacterial growth inhibition incubated for 2 to 3 weeks by resazurin dye based assay; type: functional; settings: time 2-3 weeks
[9] = test system: Mycobacterium tuberculosis; test: Antibacterial activity against Mycobacterium tuberculosis H37Rv assessed as MIC of kanamycin A at 100 uM incubated for 24 hrs followed by kanamycin A addition measured after 6 days by alamarblue dye based assay; type: functional; settings: for Activity: time 7.0 day; for MIC: 168 h, time 7 day
[10] = test system: A549; test: Cytotoxicity against human A549 cells upto 12.5 uM incubated for 24 hrs by resazurin dye based cell viability assay; type: toxicity; settings: a549, 24 h
[11] = test system: HEK293; test: Cytotoxicity against HEK293 cells upto 12.5 uM incubated for 24 hrs by resazurin dye based cell viability assay; type: toxicity; settings: human, hek293, 24 h
[12] = test system: J774.1; test: Cytotoxicity against mouse J774.1 cells upto 12.5 uM incubated for 24 hrs by resazurin dye based cell viability assay; type: toxicity; settings: j774.1, 24 h

| Structure (SMILES) | IC50 [1] | MIC [2] | MIC [3] | MIC [4] | MIC [5] | MIC [6] | MIC [7] | MIC [8] | Activity [9] | Activity [10] | Activity [11] | Activity [12] | MIC [9] |
| --- | --- | --- | --- | --- | --- | --- | --- | --- | --- | --- | --- | --- | --- |
| c1ccc(COc2ccc(CNCc3ccncc3)cc2)cc1 | ~40 µM | > 62.5 µM | 50 µM (≈ 15.2 µg/mL) | > 62.5 µM | > 62.5 µM | 2 µM (≈ 0.609 µg/mL) | 62.5 µM (≈ 19 µg/mL) |  |  |  |  |  |  |
| Fc1ccc(COc2ccc(CNCc3ccccc3)cc2)cc1 | > 200 µM | > 250 µM | > 100 µM | > 62.5 µM | > 62.5 µM | > 62.5 µM | > 62.5 µM | > 62.5 µM |  |  |  |  |  |
| c1ccc(CNCc2ccc(OCc3ccc(-c4ccccc4)cc3)cc2)cc1 | > 200 µM | 2 µM (≈ 0.759 µg/mL) | 12.5 µM (≈ 4.74 µg/mL) |  | 7.8 µM (≈ 2.96 µg/mL) | > 62.5 µM | 7.8 µM (≈ 2.96 µg/mL) | 15.6 µM (≈ 5.92 µg/mL) |  |  |  |  |  |
| Fc1ccc(COc2ccccc2CNCc2ccccc2)cc1 | ~8 µM | 31.3 µM (≈ 10.1 µg/mL) | 50 µM (≈ 16.1 µg/mL) | > 62.5 µM | 31.3 µM (≈ 10.1 µg/mL) | > 62.5 µM | 31.3 µM (≈ 10.1 µg/mL) | 31.3 µM (≈ 10.1 µg/mL) | Active | Non-Toxic | Non-Toxic | Non-Toxic |  |
| Fc1ccc(COc2cccc(CNCc3ccncc3)c2)cc1 | 14 µM | 31.3 µM (≈ 10.1 µg/mL) | 100 µM (≈ 32.2 µg/mL) | > 62.5 µM | > 62.5 µM | > 62.5 µM | > 62.5 µM | > 62.5 µM | Active |  |  |  |  |
| CC(C)(C)c1ccc(COc2ccc(CNCc3ccccc3)cc2)cc1 | > 200 µM | 1 µM (≈ 0.36 µg/mL) | 12.5 µM (≈ 4.49 µg/mL) | 3.9 µM (≈ 1.4 µg/mL) | 7.8 µM (≈ 2.8 µg/mL) | 31.3 µM (≈ 11.3 µg/mL) |  |  |  |  |  |  |  |
| c1ccc(CNCc2ccccc2OCc2ccccc2)cc1 | ~15 µM |  | 100 µM (≈ 30.3 µg/mL) | > 62.5 µM |  | > 62.5 µM | 31.3 µM (≈ 9.5 µg/mL) | 15.6 µM (≈ 4.73 µg/mL) | Active |  |  |  |  |
| Clc1cccc(COc2ccccc2CNCc2ccccc2)c1 | 6.5 µM | 31.3 µM (≈ 10.6 µg/mL) | 50 µM (≈ 16.9 µg/mL) | 62.5 µM (≈ 21.1 µg/mL) | 31.3 µM (≈ 10.6 µg/mL) | > 62.5 µM |  |  | Active | Non-Toxic | Non-Toxic | Non-Toxic |  |
| Clc1ccc(COc2cccc(CNCc3ccccc3)c2)cc1 | 5.4 µM | 15.6 µM (≈ 5.27 µg/mL) | 12.5 µM (≈ 4.22 µg/mL) |  | 31.3 µM (≈ 10.6 µg/mL) |  |  |  |  |  |  |  |  |
| NNC(=O)c1ccncc1 [ISONIAZID] |  |  |  | 3.9 µM (≈ 0.535 µg/mL) | > 31.3 µM | > 31.3 µM | 3.9 µM (≈ 0.535 µg/mL) | 7.8 µM (≈ 1.07 µg/mL) |  |  |  |  |  |
| Brc1ccc(COc2ccccc2CNCc2ccncc2)cc1 | 4.3 µM |  | 25 µM (≈ 9.58 µg/mL) | > 62.5 µM | > 62.5 µM | > 62.5 µM |  |  |  |  |  |  | ≤ 1.25 µg/mL |
| CC(C)c1ccc(COc2ccc(CNCc3ccccc3)cc2)cc1 | 1.4 µM | ≤ 0.5 µM | 0.78 µM (≈ 0.269 µg/mL) | 3.9 µM (≈ 1.35 µg/mL) | 7.8 µM (≈ 2.69 µg/mL) | 15.6 µM (≈ 5.39 µg/mL) | 2 µM (≈ 0.691 µg/mL) |  |  |  |  |  |  |
| Fc1ccc(COc2cccc(CNCc3ccccc3)c2)cc1 | 7.3 µM | 3.9 µM (≈ 1.25 µg/mL) | 50 µM (≈ 16.1 µg/mL) |  | 31.3 µM (≈ 10.1 µg/mL) | 15.6 µM (≈ 5.01 µg/mL) |  |  |  |  |  |  |  |
| c1ccc(COc2ccc(CNCc3cccnc3)cc2)cc1 | ~40 µM | 31.3 µM (≈ 9.53 µg/mL) | 100 µM (≈ 30.4 µg/mL) | > 62.5 µM | > 62.5 µM | 31.3 µM (≈ 9.53 µg/mL) | 31.3 µM (≈ 9.53 µg/mL) |  |  |  |  |  |  |
| Fc1ccc(COc2cccc(CNCc3cccnc3)c2)cc1 | 6.4 µM | 62.5 µM (≈ 20.1 µg/mL) | 100 µM (≈ 32.2 µg/mL) | > 62.5 µM | > 62.5 µM | > 62.5 µM | > 62.5 µM | > 62.5 µM |  |  |  |  | ≤ 1.25 µg/mL |
| Clc1ccc(COc2ccccc2CNCc2ccccc2)cc1 | 5.4 µM | 31.3 µM (≈ 10.6 µg/mL) | 50 µM (≈ 16.9 µg/mL) | 31.3 µM (≈ 10.6 µg/mL) |  | > 62.5 µM | 31.3 µM (≈ 10.6 µg/mL) | 31.3 µM (≈ 10.6 µg/mL) | Active | Non-Toxic | Non-Toxic | Non-Toxic |  |
| Brc1ccccc1COc1ccc(CNCc2ccccc2)cc1 | ~8 µM | 3.9 µM (≈ 1.49 µg/mL) | 100 µM (≈ 38.2 µg/mL) | 1 µM (≈ 0.382 µg/mL) | 31.3 µM (≈ 12 µg/mL) | 15.6 µM (≈ 5.96 µg/mL) | 3.9 µM (≈ 1.49 µg/mL) | 3.9 µM (≈ 1.49 µg/mL) |  |  |  |  |  |
| Brc1ccc(COc2ccc(CNCc3ccccc3)cc2)cc1 | 1.5 µM | 7.8 µM (≈ 2.98 µg/mL) | 12.5 µM (≈ 4.78 µg/mL) | 7.8 µM (≈ 2.98 µg/mL) | 15.6 µM (≈ 5.96 µg/mL) | 62.5 µM (≈ 23.9 µg/mL) | 15.6 µM (≈ 5.96 µg/mL) | 7.8 µM (≈ 2.98 µg/mL) |  |  |  |  |  |
| COc1ccc(COc2ccc(CNCc3ccccc3)cc2)cc1 | 12 µM | 3.9 µM (≈ 1.3 µg/mL) | 12.5 µM (≈ 4.17 µg/mL) | 62.5 µM (≈ 20.8 µg/mL) | 31.3 µM (≈ 10.4 µg/mL) | 31.3 µM (≈ 10.4 µg/mL) |  |  |  |  |  |  |  |
| c1ccc(CNCc2ccc(OCc3ccccc3)cc2)cc1 | > 200 µM | 62.5 µM (≈ 19 µg/mL) | 100 µM (≈ 30.3 µg/mL) |  | > 62.5 µM | 62.5 µM (≈ 19 µg/mL) | 15.6 µM (≈ 4.73 µg/mL) | 3.9 µM (≈ 1.18 µg/mL) |  |  |  |  |  |
| c1ccc(COc2ccccc2CNCc2ccncc2)cc1 | ~40 µM | 125 µM (≈ 38 µg/mL) | > 100 µM | > 62.5 µM | > 62.5 µM | > 62.5 µM | > 62.5 µM | 62.5 µM (≈ 19 µg/mL) |  |  |  |  | 2.5 µg/mL |
| Cc1ccc(COc2ccc(CNCc3ccccc3)cc2)cc1 | > 200 µM | 15.6 µM (≈ 4.95 µg/mL) | 1.56 µM (≈ 0.495 µg/mL) | 1 µM (≈ 0.317 µg/mL) | 31.3 µM (≈ 9.94 µg/mL) | 15.6 µM (≈ 4.95 µg/mL) | 15.6 µM (≈ 4.95 µg/mL) | 15.6 µM (≈ 4.95 µg/mL) |  |  |  |  |  |
| c1ccc(COc2ccccc2CNCc2cccnc2)cc1 | ~50 µM | > 250 µM | > 100 µM | > 62.5 µM | > 62.5 µM | > 62.5 µM | > 62.5 µM | > 62.5 µM |  |  |  |  | 2.5 µg/mL |
| NCC[C@H](O)C(=O)N[C@@H]1C[C@H](N)[C@@H](O[C@H]2O[C@H](CN)[C@@H](O)[C@H](O)[C@H]2O)[C@H](O)[C@H]1O[C@H]1O[C@H](CO)[C@@H](O)[C@H](N)[C@H]1O [AMIKACIN] |  |  |  | ≤ 0.25 µM | 1 µM (≈ 0.586 µg/mL) | 3.9 µM (≈ 2.28 µg/mL) | ≤ 0.25 µM | 0.25 µM (≈ 0.146 µg/mL) |  |  |  |  |  |
